US20250346883A1, “DENSITY GRADIENT CHEMOSTAT FOR ADAPTED LABORATORY EVOLUTION” (priority 2022, published 2025)
≈ marks a conversion by molar mass, not a printed value. Where “and” joins values, the source holds several entries; their conditions need not be identical. Identical values can stand only once.

How the values were obtained:
[1] = test system: Escherichia coli MG1655 ancestor and MICALE-grown samples; experiment: Chaotropic stress adaptation analysis (OD600 growth in increasing MgCl2); assay type: cell-based
Method: (§1) The adaptation analysis (step 205) is a qualitative test to compare the ability to grow in the presence of the stressor between the ancestor and MICALE-grown samples. Turbid broth cultures from isolated colonies were diluted 1:100 in sterile broth with increasing amounts of stressor. These dilutions were vortexed before pipetting 0.2 mL in triplicate onto a 96-well plate. The microplate reader then measured OD600 every 15 minutes over the span of four days while incubating the plate at 37° C. with the plate lid on. […] Referring to FIG. 3B, for each OD600 curve, the maximum rate of growth over a span of 75 minutes is designated the exponential growth rate, u, and the subtracted difference between the maximum and minimum OD600 measurements, AOD, is designated the cell proliferation. The high salinity and chaotropic stress adaptation analyses were completed once whereas the antibiotic analysis was repeated for two total trials. Growth metrics were extrapolated from the growth curves (described below) for numerical comparisons between samples and to fit a logistic dose-response curve of each sample's response in a stressor. For each sample, a logistic curve was fit to the triplicate relative exponential growth rate or relative cell proliferation values across all media types (FIG. 3C). This curve represents a sample's relative response to increasing doses of a stressor, known as a dose-response curve. The value for ED50 is the effective dose of the stressor at which a 50% decrease in the maximal response (100%) is observed.
For the chaotropic stress run, samples from both two weeks and four weeks into the run were selected for analysis (Table 5, below). The samples, including the ancestor, were cultured in media with 0, 200, and 250 mM MgCl2. The IL samples were not plated on 200 mM MgCl2 plates due to limited resources. The ancestor was grown on plates with the same MgCl2 concentration as the samples to see if the culturing process was causing genetic change significant enough to affect the growth phenotypes observed during the adaptation analysis. Cultures were diluted into media with 0, 200, 250 and 300 mM MgCl2 then pipetted onto the 96-well-plate to start the four-day analysis.
(§2) To statistically compare growth between samples, two parameters were extracted from the OD600 curves resulting from the adaptation analysis: relative exponential growth rate and relative cell proliferation (FIG. 3B). To find the exponential growth rate, μ, growth curves are normally fit to a standard sigmoidal function, such as the Gompertz model. However, these OD600 curves were too irregular to be well fit with a standard function. Instead, a rolling regression was fitted onto natural log transformed OD600 curves to produce linear regression lines between six measurements at a time (75 total minutes), shifting by 1 measurement, over the curve. The exponential growth rate from the maximum slope obtained by the rolling regression is 0.44 hr^−1. The darker lines on the upper right section of the curve represent where the maximum slope occurs. (FIG. 4).
(§3) The exponential growth rate was determined to be the maximum slope of any of the regression lines, denoted by μstress for growth curves in media with stressor and μblank for that in blank LB media [Equation 1]. Any slope maxima that appeared to be due from anomalies in the data, such as a quick jump in OD600 after biofilm formation, were filtered out. This ensured that the maximum slope occurred during the time that visually represented exponential growth (near the start of the curve). The triplicate μblank calculations were averaged to obtain the values representing that sample's growth in media without stress, μcontrol [Equation 2]. The percent relative exponential growth rate was obtained by dividing each μ by the μcontrol, then multiplying by 100 [Equation 3]. Finally, the three relative exponential growth rate values for each sample and media type were averaged [Equation 4]. […]

[2] = test system: Escherichia coli MG1655 ancestor and MICALE-grown samples; experiment: High salinity adaptation analysis (OD600 growth in increasing NaCl); assay type: cell-based
Method: as §1
The samples chosen from the high salinity run were frozen stocks of the PL, SL, and BL samples that had been taken at the end of the run (two weeks) and one SL sample from the first 25 hours (Table 2, below). The samples used in the adaptation analysis had been in media with a NaCl concentration of 60 ppt, and the ancestor was cultured on blank LB media. The samples were diluted into LB media with 5, 45, 60, 75, and 90 ppt NaCl then plated on the 96-well plate.
as §2, §3

Escherichia coli = details: cited from earlier work
[3] = test system: Escherichia coli MG1655 ancestor and MICALE-grown samples; experiment: Antibiotic stress adaptation analysis (OD600 growth in increasing ciprofloxacin); assay type: cell-based; details: for relative cell proliferation / relative exponential growth rate: 10×MIC
Method: as §1
The samples chosen for the antibiotic-stress adaptation analysis were from the end of the antibiotic stress MICALE run, sampled on the 14th day (Table 7, below). Samples were cultured grown in media with no antibiotic, 0.6 μg/mL ciprofloxacin (10×MIC,) and 15 μg/mL ciprofloxacin ([…]) were transferred into 5 mL of LB broth with the same amount of antibiotic. The only exception is the BL sample was grown in 0.6 μg/mL ciprofloxacin then transferred to LB broth with 15 μg/mL ciprofloxacin. Once turbid, the broth cultures were diluted into media with no antibiotic, 0.6 μg/mL, 6 μg/mL, and 60 μg/mL ciprofloxacin then pipetted onto a 96-well plate and placed in the microplate reader to start the analysis. A portion of the broth cultures used for the analysis were frozen in glycerol. For a repeat trial of the adaptation analysis, these frozen stocks were revived in broth media matching the level of antibiotic in which they had originally been cultured.
as §2
The exponential growth rate was determined to be the maximum slope of any of the regression lines, denoted by μstress for growth curves in media with stressor and μblank for that in blank LB media [Equation 1]. Any slope maxima that appeared to be due from anomalies in the data, such as a quick jump in OD600 after biofilm formation, were filtered out. This ensured that the maximum slope occurred during the time that visually represented exponential growth (near the start of the curve). […]

[4] = sample PL-000-Col1, 200 mM MgCl2

For [Cl-].[Cl-].[Mg+2] [MgCl2, magnesium chloride], the “growth in 300 mM MgCl2” value ([1]; all samples incl. ancestor, 300 mM MgCl2) was “No samples showed signs of growth”, the “average exponential growth rate (relative)” value ([1]; sample Anc-000, 200 mM MgCl2) was 41.7% and the relative cell proliferation ([1]; sample Anc-000, 200 mM MgCl2) was 74.0%. For the same compound, the “growth in 250 mM MgCl2” value ([1]; sample Anc-000, 250 mM MgCl2) was “showed signs of growth”, the “average exponential growth rate (relative)” value ([1]; sample Anc-200, 200 mM MgCl2) was 32.0% and the relative cell proliferation ([1]; sample Anc-200, 200 mM MgCl2) was 94.0%. The “average exponential growth rate (relative)” value ([1]; sample IL-000, 200 mM MgCl2) was 33.5%, the relative cell proliferation ([1]; sample IL-000, 200 mM MgCl2) was 86.5% and the “maximum OD600” value ([1]; sample PL-000-Col1, one triplicate well, 200 mM MgCl2) was 1.479. The “average exponential growth rate (relative)” value [1, 4] was 54.0%, the relative cell proliferation [1, 4] was 130% and 130.3% and the “growth in 250 mM MgCl2” value ([1]; sample PL-000-Col1, 250 mM MgCl2 (one well)) was “showed signs of growth”. For the same compound, the relative cell proliferation ([1]; sample PL-000-Col2, 200 mM MgCl2 (considered as no growth)) was “less than 5%”, the “growth in media with MgCl2” value ([1]; sample PL-000-Col2, any media with MgCl2) was “could not grow” and the “average exponential growth rate (relative)” value ([1]; sample PL-200, 200 mM MgCl2) was 26.5%. The relative cell proliferation ([1]; sample PL-200, 200 mM MgCl2) was 129.3%, the “average exponential growth rate (relative)” value ([1]; sample SL-W2, 200 mM MgCl2) was 22.2% and the “highest average OD600” value ([1]; sample SL-W2, 200 mM MgCl2) was 1.399. For the same compound, the relative cell proliferation ([1]; sample SL-W2, 200 mM MgCl2) was 140.8%, the “average exponential growth rate (relative)” value ([1]; sample SL-W4, 200 mM MgCl2) was 42.3% and the relative cell proliferation ([1]; sample SL-W4, 200 mM MgCl2) was 102.2%.

With [Cl-].[Na+] [NaCl, sodium chloride] the “decrease of exponential growth rate from 60 to 75 ppt NaCl” value (shortened to “decrease of exponential growth rate”) ([2]; sample Ancestor) was 22.9%, the relative growth rate ([2]; sample Ancestor, 75 ppt NaCl) was 15.5% and the average cell proliferation ([2]; sample Ancestor, 90 ppt NaCl (no growth)) was “less than 5%”. For the same compound, the “increase of exponential growth rate from 60 to 75 ppt NaCl” value ([2]; sample BL) was 7.7%, the relative growth rate ([2]; sample BL, 60 ppt NaCl) was 32.5% and the relative growth rate ([2]; sample BL, 75 ppt NaCl) was 40.2%. For the same compound, the relative growth rate ([2]; sample BL, 90 ppt NaCl) was 42.8%, the “decrease of exponential growth rate” value ([2]; sample PL) was 35.0% and the relative growth rate ([2]; sample PL, 75 ppt NaCl) was 18.3%. The relative growth rate ([2]; sample PL, 90 ppt NaCl) was 25.9%, the “decrease of exponential growth rate” value ([2]; sample SLearly) was 28.9% and the average cell proliferation ([2]; sample SLearly, 75 and 90 ppt NaCl (no growth)) was “less than 5%”. The relative growth rate ([2]; sample SLearly, 75 ppt NaCl) was 3.1%, the “decrease of exponential growth rate” value ([2]; sample SLfinal) was 7.8% and the relative growth rate ([2]; sample SLfinal, 75 ppt NaCl) was 19.7%. For the same compound, the relative growth rate ([2]; sample SLfinal, 90 ppt NaCl) was 27.0% and the average cell proliferation ([2]; three samples taken at the end of the run (PL, SLfinal, BL), every level of salinity (5-90 ppt NaCl)) was “over 5%”.

In the case of O=C(O)c1cn(C2CC2)c2cc(N3CCNCC3)c(F)cc2c1=O [ciprofloxacin], the “MIC, literature's value” (Escherichia coli) is given as 0.05 µg/mL (≈ 0.151 µM), the “growth in media with ciprofloxacin” value ([3]; Ancestor, any media with ciprofloxacin (10-1000×MIC), both trials) is given as “did not show signs of growth” and the “concentration at which cell proliferation value of less than 5% was reached (no growth)” value ([3]; Trial 1, Ancestor) is given as 10 ×MIC. For the same compound, the “concentration at which cell proliferation value of less than 5% was reached (no growth)” value ([3]; Trial 1, sample BL-15) was 1000 ×MIC, the “concentration at which cell proliferation value of less than 5% was reached (no growth)” value ([3]; Trial 1, sample IL-00) was 100 ×MIC and the average cell proliferation ([3]; Trial 1, sample IL-00, 100×MIC) was 0.6%. The average cell proliferation ([3]; Trial 1, sample IL-00, 1000×MIC (likely evaporation, not growth)) was 5.3%, the “concentration at which cell proliferation value of less than 5% was reached (no growth)” value ([3]; Trial 1, sample IL-15-Col1) was 1000 ×MIC and the relative growth rate ([3]; Trial 1, sample IL-15-Col1, 100×MIC) was 54.4%. For the same compound, the “concentration at which cell proliferation value of less than 5% was reached (no growth)” value ([3]; Trial 1, sample IL-15-Col2) was 1000 ×MIC, the relative cell proliferation ([3]; Trial 1, sample IL-15-Col2) was 61.5% and the “relative exponential growth rate” value ([3]; Trial 1, sample IL-15-Col2) was 107.5%. The “concentration at which cell proliferation value of less than 5% was reached (no growth)” value ([3]; Trial 1, sample PL-00) was 10 ×MIC, the “concentration at which cell proliferation value of less than 5% was reached (no growth)” value ([3]; Trial 1, sample PL-0.6) was 100 ×MIC and the cell proliferation values ([3]; Trial 1, sample SL-15, all concentrations (10-1000×MIC)) was “over 5%”. The “concentration at which average cell proliferation lower than 5% was reached” value ([3]; Trial 2, Anc) was 10 ×MIC, the “relative exponential growth rate” value ([3]; Trial 2, sample BL-15) was 97.2% and the relative growth rate ([3]; Trial 2, sample BL-15, 100×MIC) was 66.6%. The “concentration at which average cell proliferation lower than 5% was reached” value ([3]; Trial 2, sample IL-00) was 100 ×MIC, the “relative exponential growth rate” value ([3]; Trial 2, sample IL-15-Col1) was 90.5% and the “concentration at which average cell proliferation lower than 5% was reached” value ([3]; Trial 2, sample IL-15-Col2) was 1000 ×MIC. For the same compound, the relative cell proliferation ([3]; Trial 2, sample IL-15-Col2) was 90.9%, the “relative exponential growth rate” value ([3]; Trial 2, sample IL-15-Col2) was 101.6% and the “concentration at which average cell proliferation lower than 5% was reached” value ([3]; Trial 2, sample PL-00) was 100 ×MIC. For the same compound, the “concentration at which average cell proliferation lower than 5% was reached” value ([3]; Trial 2, sample PL-0.6) was 100 ×MIC, the “relative exponential growth rate” value ([3]; Trial 2, sample SL-15) was 90.6% and the average cell proliferation ([3]; Trial 2, samples IL-15-Col1, SL-15 and BL-15, 1000×MIC (growth in all levels tested)) was “above 5%”. For the same compound, the “growth (OD600 curves) in ciprofloxacin” value ([3]; samples IL-15-Col1, IL-15-Col2, SL-15 and BL-15, both trials) was “had OD600 curves in ciprofloxacin up to 100×MIC” and the “growth in 100 or 1,000×MIC” value ([3]; samples PL-00, PL-0.6 and IL-00, overall, both trials) was “could not grow”.
